Data reported in US5888757A, “Cell wall assay” (Millennium Pharmaceuticals, Inc., priority 1996, dated 1999).

Experiments:
[1] = molecular target: T1, CaCHS1p (chitin synthase of Candida albicans) (Candida albicans, UniProt P23316); experiment: Chitin synthase inhibition assay (WGA capture / WGA-HRP detection of chitin synthesized in vitro); format: biochemical; details: inhibitor added over a range of concentrations, to a maximal concentration of 1 mM; FIG. 3
Description: Preparation of CaCHS1p Membranes: In this example, chitin synthase was obtained from the S. cerevisiae strain 68-11-2C, transformed with the plasmid pJA16 (Bulawa et al., 1990, Proc. Natl. Acad. Sci. USA, 87:7424-7428 and Au-Young et al., 1990, Mol. Micro. 4:197-207). In strain 68-11-2C, the S. cerevisiae genes encoding chitin synthases 1 and 2 (CHS1 and CHS2, respectively) were genetically disrupted, rendering the strain deficient in production of these enzymes. The plasmid pJA16 encodes the chitin synthase gene of Candida albicans, and provides the only significant source of chitin in this assay.
Generally, the strain 68-1-2C/pJA16 is maintained on a supplemented SD medium. In this example, the cells were grown in 1 liter of SD medium for 48 hrs at 30° C. To provide good aeration, the culture was divided into two 500 ml cultures and grown in 2-liter flasks until the culture reached the stationary phase (i.e., until the OD600 of the culture reached 1.2-1.4). […] The cell walls then were broken by vortexing aliquots (2 ml) of the resuspended cells for 2 minutes with 3 ml of glass beads, according to conventional protocols. The cell extracts then were centrifuged for 5 minutes at 1,000×g, and the resulting supernatant was stored at -80° C. until it was used in the chitin synthase reactions described below. Frozen CaCHS1p membranes can be thawed at 30° C. […]

[2] = molecular target: T1, CaCHS1p (chitin synthase of Candida albicans); details: known relative potency, Nikkomycin Z versus Asperfuran; cited from earlier work

T1 sequence (P23316 whole entry): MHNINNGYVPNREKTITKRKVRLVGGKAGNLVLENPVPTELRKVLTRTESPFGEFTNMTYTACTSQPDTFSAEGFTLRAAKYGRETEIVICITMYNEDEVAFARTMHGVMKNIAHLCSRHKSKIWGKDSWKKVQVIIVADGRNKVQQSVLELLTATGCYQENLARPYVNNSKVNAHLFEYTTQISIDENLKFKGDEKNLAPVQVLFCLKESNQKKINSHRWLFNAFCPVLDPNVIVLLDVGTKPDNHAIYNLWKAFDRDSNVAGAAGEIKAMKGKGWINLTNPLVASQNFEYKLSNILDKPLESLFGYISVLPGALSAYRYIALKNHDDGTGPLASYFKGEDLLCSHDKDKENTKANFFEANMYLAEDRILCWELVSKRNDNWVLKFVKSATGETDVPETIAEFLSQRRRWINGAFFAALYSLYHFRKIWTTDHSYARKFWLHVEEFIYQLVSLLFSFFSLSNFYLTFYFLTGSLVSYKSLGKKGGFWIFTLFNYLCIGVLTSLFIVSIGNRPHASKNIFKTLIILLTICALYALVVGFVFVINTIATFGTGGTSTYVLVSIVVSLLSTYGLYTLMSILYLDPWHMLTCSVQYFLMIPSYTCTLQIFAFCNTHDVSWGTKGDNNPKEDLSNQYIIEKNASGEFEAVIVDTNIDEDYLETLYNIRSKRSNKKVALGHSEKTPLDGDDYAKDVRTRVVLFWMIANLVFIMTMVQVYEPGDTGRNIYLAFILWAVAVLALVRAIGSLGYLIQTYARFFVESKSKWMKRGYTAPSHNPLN

Structure (SMILES)	inhibition of chitin synthase [1]	relative potency as inhibitor of CaCHS1p activity [2]
C/C=C/C=C/[C@H]1Cc2cc(O)cc(O)c2O1 [Asperfuran]	an increase in the concentration of either of these chitin synthase inhibitors causes an increase in the inhibition of chitin synthase	–
C[C@@H]([C@H](N)C(=O)N[C@H](C(=O)O)[C@H]1O[C@@H](n2ccc(=O)[nH]c2=O)[C@H](O)[C@@H]1O)[C@H](O)c1ccc(O)cn1 [Nikkomycin Z]	an increase in the concentration of either of these chitin synthase inhibitors causes an increase in the inhibition of chitin synthase	more potent inhibitor of CaCHS1p activity than is Asperfuran
